# From US6939541B2, “Cloning, overexpression and therapeutic use of bioactive histidine ammonia lyase” (priority 2000, dated 2005)
# What was measured:
# [1] = target: Corynebacteriaceae histidine ammonia lyase (HAL) (Glutamicibacter halophytocola, UniProt A0A5B8IKQ6, DEL117-117/DEL409-409/N172D/R434P/T116S); assay: biochemical; assay type: biochemical, bacterium of the family Corynebacteriaceae; settings: for IC50: inhibition not complete, read-out: concentration required to reduce the activity by half
# [2] = target: histidine ammonia lyase isolated from Achromobacter liquidum; settings: Shibatani et al. 1975; cited from earlier work
# [3] = tested on: Herpes Simplex Virus (HSV); assay: HSV plaque assay in VERO cells; assay type: cell-based
# Protocol: HAL was tested for its anti-viral activity against a variety of infectious viruses in vitro. Effectiveness against Herpes Simplex Virus (HSV) was assayed using the following method. Confluent VERO cells from a T-175 flask are tyrpsinized and split into as many T-25 flasks as the experiment requires. The cells are grown in RPMI-1640 with 10% newborn calf serum-heat inactivated, and L-glutamine. After cells have grown to confluence remove the media and add 0.5 ml of diluted virus (make a series of 1:5 dilution). Dilution of virus is prepared in RPMI-1640 with 2% NCS. The cells are then incubated for 1 hour at 37° C. and then 5 ml of RPMI-1640 with 2% NCS with or without the test compounds is added and incubation is allowed to continue for 1 day. After 24 hours the flasks are sealed with parafilm and frozen at −70° C. The cells are then allowed to thaw at RT to lyse dead intact cells, releasing virus. The viral suspension is then centrifuged to remove cell debris. The viral dilution that caused complete lysis will be used in the plaque assay. The plaque assay is set up by trypsinizing cells from a T-75 and resuspending the cells in RPMI-1640 with 10% NCS and poured into 6-well plate at 2 ml/well. The cells are incubated overnight at 37° C. The media is then removed by suction and 0.2 ml of the viral dilution is added and allowed to incubate for one hour. During this hour the agar is prepared and stored at 41° C. to prevent hardening. The agar concentrations are as follows: ½ vol. 2×BME (Gibco), 2% Pen/Strep, 2% NCS, and 1% agar. After the hour incubation 2 ml of the BME/agar is carefully added to the wells, so as not to disturb the cell monolayer. The plate is left at RT for twenty to thirty minutes to allow the agar to harden, and then the cells are incubated for 48 hours at 37° C. The cells are then stained used BME/agar containing neutral red. The BME/agar is prepared as before with the addition of neutral red stain (Gibco) to a final concentration of 5%. […] Plaques are then counted and the cells fixed for a permanent record.
# [4] = target: T1, Streptomyces griseus histidine ammonia lyase (Streptomyces griseus, UniProt P24221); assay: Inhibition of Streptomyces griseus histidine ammonia lyase; assay type: biochemical; settings: equal molar concentration to histidine
# Text: HAL has a significant advantage over other histidine ammonia lyases in that it is relatively resistant to inhibition by L-histidinol. L-histidinol is a histidine analog. Because L-histidinol acts as a competitive inhibitor it must be present in high concentrations to have an effect on histidine dependent reactions. Using HAL to reduce the overall histidine pool would therefore greatly increase the effectiveness of L-histidinol. […] Because the Corynebacteriaceae histidine ammonia lyase (HAL) is not inhibited by L-histidinol at therapeutic L-histidinol levels it has a great advantage over other histidine ammonia lyases. […] However, with HAL 20% of activity still is retained when L-histidinol is present at 10 times the concentration of L-histidine.
# [5] = tested on: Respiratory Syncytial Virus (RSV); assay: RSV plaque assay in Hep2 cells; assay type: cell-based; settings: L-histidinol 3 mM
# Protocol: Another successful study has been with Respiratory Syncytial Virus (RSV). RSV is another highly infectious disease causing agent. It causes lower respiratory-tract infections such as bronchitis and pneumonia in infancy and early childhood, with nearly 50% of infants suffering from an RSV infection during their first winter. Experiments were performed in tissue culture using the RSV Plaque Assay. The RSV plaque assay is performed similarly to the HSV assay. When performing the RSV assay Hep2 cells are used to propagate the RSV and the cells are grown in EMEM media with 2% FBS, L-glutamine and Antibiotic-Antimycotic. The virus stock is diluted in the medium and added to each well with or without the desired testing compound. The plates are incubated for 2 hours at 37° C. and the virus is removed. 0.5% agarose is added to the media and incubated for 5 days at 37° C. The plates are then fixed with 10% formalin and stained with crystal violet.
# [6] = target: T1, Streptomyces griseus histidine ammonia lyase; settings: Wu et al.; cited from earlier work
# Sequence of Corynebacteriaceae histidine ammonia lyase (HAL) (A0A5B8IKQ6 entry or part of it T116S/DEL117-117/N172D/DEL409-409/R434P): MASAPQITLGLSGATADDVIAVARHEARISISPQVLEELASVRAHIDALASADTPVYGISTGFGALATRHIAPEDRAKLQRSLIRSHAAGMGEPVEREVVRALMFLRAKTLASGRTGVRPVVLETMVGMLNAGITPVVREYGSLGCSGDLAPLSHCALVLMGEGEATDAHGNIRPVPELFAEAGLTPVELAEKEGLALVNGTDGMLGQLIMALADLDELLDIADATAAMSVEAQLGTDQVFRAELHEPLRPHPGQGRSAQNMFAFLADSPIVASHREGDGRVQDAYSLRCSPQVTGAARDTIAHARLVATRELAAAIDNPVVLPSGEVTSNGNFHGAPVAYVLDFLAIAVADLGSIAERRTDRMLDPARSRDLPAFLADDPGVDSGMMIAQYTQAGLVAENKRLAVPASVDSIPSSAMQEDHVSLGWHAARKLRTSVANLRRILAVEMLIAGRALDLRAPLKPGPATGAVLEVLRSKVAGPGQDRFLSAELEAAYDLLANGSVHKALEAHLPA
# T1 sequence (P24221 whole entry): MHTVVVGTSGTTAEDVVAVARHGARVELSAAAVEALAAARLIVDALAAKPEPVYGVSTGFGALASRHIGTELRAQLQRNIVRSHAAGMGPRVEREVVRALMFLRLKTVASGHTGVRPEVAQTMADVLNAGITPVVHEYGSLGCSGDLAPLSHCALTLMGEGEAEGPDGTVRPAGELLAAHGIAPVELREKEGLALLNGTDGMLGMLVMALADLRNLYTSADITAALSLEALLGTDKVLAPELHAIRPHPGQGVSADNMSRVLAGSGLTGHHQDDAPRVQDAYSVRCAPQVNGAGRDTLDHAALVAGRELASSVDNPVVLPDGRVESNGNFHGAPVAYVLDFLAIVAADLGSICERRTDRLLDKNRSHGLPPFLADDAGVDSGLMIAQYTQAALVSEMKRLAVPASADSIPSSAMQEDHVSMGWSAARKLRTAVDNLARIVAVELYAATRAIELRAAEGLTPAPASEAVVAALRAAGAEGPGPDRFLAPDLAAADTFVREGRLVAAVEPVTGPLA
compound,measurement,setting,value
O[C@@H](CS)[C@@H](O)CS [DTT],IC50,[1],15 mM
O=C(O)CN(CCN(CC(=O)O)CC(=O)O)CC(=O)O [EDTA],inhibition of the HAL reaction,[1]; concentrations as low as 1 mM,completely inhibit
same,reversibility of the inhibition,[1]; presence of Mn^2+ at 1×10^5 M,reversible
N[C@H](CO)Cc1c[nH]cn1 [L-histidinol],Ki,[2],4.58 mM
same,inhibition of HSV,[3]; L-histidinol 0.1 mM,no inhibition
same,inhibition of HSV,[3]; L-histidinol 0.5 mM,no inhibition
same,inhibition of HSV,[3]; L-histidinol 1 mM,5 fold
same,inhibition of the enzyme,[4],completely inhibit
same,inhibition of RSV plaque numbers,[5],no inhibition
same,Ki,[1],24.3 to 33.4 mM
same,inhibition of HAL,[1]; therapeutic L-histidinol levels,not inhibited
N[C@@H](CCC(=O)N[C@@H](CS)C(=O)NCC(=O)O)C(=O)O [reduced glutathione],IC50,[1],15 mM
L-histidinol phosphate,Ki,[6],0.27 mM
